Experiments:
[1] = system: C neoformans M-106; test: MIC determination (NCCLS broth method); format: cell-based, Cryptococcus neoformans
Description: (§1) The in-vitro evaluation of the antifungal activity of the compounds can be performed by determining the minimum inhibitory concentration (MIC) as shown in Table 1 which is the concentration of the test compound in Rosewell Park Memorial Institute (RPMI) 1640 liquid medium buffered with 3-(Morpholino)propanesulphonic acid (MOPS) to pH 7, at which there is significant inhibition of the particular fungi. In practice the National Committee for Clinical Laboratory Standard (NCCLS) M27A document for Candida and Cryptococcus and M38P for Aspergillus was used to determine the MIC against yeast and filamentous fungi with suitable modifications for dermatophytes to other filamentous fungi. Three quality control strains were included each time the MIC were determined and readings recorded only when the Quality Control results fell into the acceptable range. After MIC results had been recorded, 100 μl from each of the well showing no growth was spread over Sabouraud Dextrose Agar (SDA) to determine the minimum fungicidal concentration (MFC) as shown in Table 2.

[2] = system: C neoformans I; test: MIC determination (NCCLS broth method); format: cell-based, Cryptococcus neoformans
Description: as §1

[3] = system: Rhizopus (Ceylon); test: MFC determination (subculture on Sabouraud Dextrose Agar); format: cell-based
Description: as §1

[4] = system: A niger P1 - 1046; test: as above; format: cell-based
Description: as §1

[5] = system: Penicillium 31620; test: as above; format: cell-based
Description: as §1

[6] = system: Penicillium 2306; test: as above; format: cell-based
Description: as §1

[7] = system: C krusei 6258; test: as above; format: cell-based
Description: as §1

[8] = system: A flavus P2 - 1045; test: as above; format: cell-based
Description: as §1

[9] = system: A flavus P3 - 1041; test: as above; format: cell-based
Description: as §1

[10] = system: Penicillium I - 1049; test: as above; format: cell-based
Description: as §1

[11] = system: Penicillium 2548; test: as above; format: cell-based
Description: as §1

[12] = system: Penicillium 1641; test: as above; format: cell-based
Description: as §1

[13] = system: Rhizopus 1052; test: as above; format: cell-based
Description: as §1

[14] = system: C parapsilosis 22019; test: as above; format: cell-based
Description: as §1

[15] = system: A flavus E4 - 1042; test: as above; format: cell-based
Description: as §1

[16] = system: A flavus E3 - 1044; test: as above; format: cell-based
Description: as §1

[17] = system: Mucor (Ceylon); test: as above; format: cell-based
Description: as §1

[18] = system: Penicillium 191; test: as above; format: cell-based
Description: as §1

[19] = system: Penicillium H - 1048; test: as above; format: cell-based
Description: as §1

[20] = system: A niger E5 - 1047; test: as above; format: cell-based
Description: as §1

[21] = system: Alternaria 1051; test: as above; format: cell-based
Description: as §1

[22] = system: A fumigatus SI-1 - 1019; test: MIC determination (NCCLS broth method); format: cell-based, Aspergillus fumigatus
Description: as §1

[23] = system: A fumigatus L - 1034; test: MIC determination (NCCLS broth method); format: cell-based, Aspergillus fumigatus
Description: as §1

[24] = system: A fumigatus II - 1012; test: MIC determination (NCCLS broth method); format: cell-based, Aspergillus fumigatus
Description: as §1

[25] = system: A fumigatus 1008; test: MIC determination (NCCLS broth method); format: cell-based, Aspergillus fumigatus
Description: as §1

[26] = system: A fumigatus PGI - 1023; test: MIC determination (NCCLS broth method); format: cell-based, Aspergillus fumigatus
Description: as §1

[27] = system: A fumigatus I - 1011; test: MIC determination (NCCLS broth method); format: cell-based, Aspergillus fumigatus
Description: as §1

[28] = system: A fumigatus K - 1033; test: MIC determination (NCCLS broth method); format: cell-based, Aspergillus fumigatus
Description: as §1

[29] = system: A fumigatus J - 1032; test: MIC determination (NCCLS broth method); format: cell-based, Aspergillus fumigatus
Description: as §1

[30] = system: Penicilliuim 2306; test: MIC determination (NCCLS broth method); format: cell-based, Penicillium
Description: as §1

[31] = system: Rhizopus (Ceylon); test: MIC determination (NCCLS broth method); format: cell-based
Description: as §1

[32] = system: A flavus P3 - 1041; test: MIC determination (NCCLS broth method); format: cell-based
Description: as §1

[33] = system: C tropicalis 750; test: MIC determination (NCCLS broth method); format: cell-based
Description: as §1

[34] = system: Penicillium 1641; test: MIC determination (NCCLS broth method); format: cell-based
Description: as §1

[35] = system: Penicillium H - 1048; test: MIC determination (NCCLS broth method); format: cell-based
Description: as §1

[36] = system: C krusei 766.1; test: MIC determination (NCCLS broth method); format: cell-based
Description: as §1

[37] = system: Fusarium 2960C; test: MIC determination (NCCLS broth method); format: cell-based
Description: as §1

[38] = system: P variotii 22319; test: MIC determination (NCCLS broth method); format: cell-based, Paecillomyces variotii
Description: as §1

[39] = system: C albicans A-26; test: MIC determination (NCCLS broth method); format: cell-based, Candida albicans
Description: as §1

[40] = system: C albicans Y01.19; test: MIC determination (NCCLS broth method); format: cell-based, Candida albicans
Description: as §1

[41] = system: A fumigatus SI-1 - 1019; test: MFC determination (subculture on Sabouraud Dextrose Agar); format: cell-based, Aspergillus fumigatus
Description: as §1

[42] = system: A fumigatus 1008; test: as above; format: cell-based, Aspergillus fumigatus
Description: as §1

[43] = system: Fusarium 18270; test: as above; format: cell-based; conditions: Fusarium 18270
Description: as §1

C[C@@H]1[C@H](O)[C@@H](C)/C=C/C=C/C=C/C=C/C=C/C=C/C=C/[C@H](O[C@@H]2O[C@H](C)[C@@H](O)[C@H](N)[C@@H]2O)C[C@@H]2O[C@](O)(C[C@@H](O)C[C@@H](O)[C@H](O)CC[C@@H](O)C[C@@H](O)CC(=O)O[C@H]1C)C[C@H](O)[C@H]2C(=O)O [Amphotericin-B, Amphotericin B]
16 µg/mL: Minimum Fungicidal Concentration (MFC) [12]
0.125 µg/mL: Minimum Fungicidal Concentration (MFC) [15] | Minimum Inhibitory Concentration (MIC) [24] | Minimum Inhibitory Concentration (MIC) [26] | Minimum Inhibitory Concentration (MIC) [28] | Minimum Inhibitory Concentration (MIC) [40]
>128 µg/mL: Minimum Fungicidal Concentration (MFC) [21]
0.5 µg/mL: Minimum Fungicidal Concentration (MFC) [6] | Minimum Fungicidal Concentration (MFC) [9] | Minimum Fungicidal Concentration (MFC) [16] | Minimum Inhibitory Concentration (MIC) [22] | Minimum Inhibitory Concentration (MIC) [32] | Minimum Inhibitory Concentration (MIC) [37]
0.03 µg/mL: Minimum Inhibitory Concentration (MIC) [1] | Minimum Inhibitory Concentration (MIC) [38]
64 µg/mL: Minimum Fungicidal Concentration (MFC) [3] | Minimum Inhibitory Concentration (MIC) [31]
8 µg/mL: Minimum Fungicidal Concentration (MFC) [13]
32 µg/mL: Minimum Fungicidal Concentration (MFC) [14]
0.25 µg/mL: Minimum Fungicidal Concentration (MFC) [4] | Minimum Fungicidal Concentration (MFC) [5] | Minimum Fungicidal Concentration (MFC) [20] | Minimum Inhibitory Concentration (MIC) [23] | Minimum Inhibitory Concentration (MIC) [25] | Minimum Inhibitory Concentration (MIC) [27] | Minimum Inhibitory Concentration (MIC) [29] | Minimum Inhibitory Concentration (MIC) [30] | Minimum Inhibitory Concentration (MIC) [33] | Minimum Inhibitory Concentration (MIC) [35] | Minimum Inhibitory Concentration (MIC) [36] | Minimum Inhibitory Concentration (MIC) [39]
2 µg/mL: Minimum Fungicidal Concentration (MFC) [18] | Minimum Fungicidal Concentration (MFC) [19] | Minimum Fungicidal Concentration (MFC) [41]
1 µg/mL: Minimum Fungicidal Concentration (MFC) [7] | Minimum Fungicidal Concentration (MFC) [8] | Minimum Fungicidal Concentration (MFC) [17] | Minimum Fungicidal Concentration (MFC) [42]
4 µg/mL: Minimum Fungicidal Concentration (MFC) [10] | Minimum Fungicidal Concentration (MFC) [11]
0.06 µg/mL: Minimum Inhibitory Concentration (MIC) [2] | Minimum Inhibitory Concentration (MIC) [34]

C[C@@H](n1ncn(-c2ccc(OCC(F)(F)C(F)F)cc2)c1=O)[C@](O)(Cn1cncn1)c1ccc(F)cc1F [TAK 187, 2-[(1R,2R)-2-(2,4-difluorophenyl)-2-hydroxy-1-methyl-3-(1H-1,2,4-triazol-1-yl)propyl]-4-(2′,2′,3′,3′-tetraflouropropoxyphenyl)-3(2H,4H)-1,2,4-triazolone]
0.25 µg/mL: Minimum Inhibitory Concentration (MIC) [38]
64 µg/mL: Minimum Fungicidal Concentration (MFC) [7]
4 µg/mL: Minimum Inhibitory Concentration (MIC) [23] | Minimum Inhibitory Concentration (MIC) [25] | Minimum Inhibitory Concentration (MIC) [27] | Minimum Inhibitory Concentration (MIC) [29]
0.5 µg/mL: Minimum Fungicidal Concentration (MFC) [4]
0.03 µg/mL: Minimum Inhibitory Concentration (MIC) [2] | Minimum Fungicidal Concentration (MFC) [14]
8 µg/mL: Minimum Fungicidal Concentration (MFC) [16] | Minimum Inhibitory Concentration (MIC) [24] | Minimum Inhibitory Concentration (MIC) [26] | Minimum Inhibitory Concentration (MIC) [28] | Minimum Inhibitory Concentration (MIC) [30] | Minimum Inhibitory Concentration (MIC) [32] | Minimum Fungicidal Concentration (MFC) [42]
0.06 µg/mL: Minimum Inhibitory Concentration (MIC) [1]
32 µg/mL: Minimum Fungicidal Concentration (MFC) [43] | Minimum Fungicidal Concentration (MFC) [8] | Minimum Fungicidal Concentration (MFC) [12] | Minimum Fungicidal Concentration (MFC) [13] | Minimum Inhibitory Concentration (MIC) [37] | Minimum Fungicidal Concentration (MFC) [41]
2 µg/mL: Minimum Fungicidal Concentration (MFC) [20] | Minimum Inhibitory Concentration (MIC) [22] | Minimum Inhibitory Concentration (MIC) [31] | Minimum Inhibitory Concentration (MIC) [36] | Minimum Inhibitory Concentration (MIC) [40]
128 µg/mL: Minimum Fungicidal Concentration (MFC) [10]
0.125 µg/mL: Minimum Inhibitory Concentration (MIC) [33]
>128 µg/mL: Minimum Fungicidal Concentration (MFC) [3] | Minimum Fungicidal Concentration (MFC) [17] | Minimum Fungicidal Concentration (MFC) [19]
16 µg/mL: Minimum Fungicidal Concentration (MFC) [5] | Minimum Fungicidal Concentration (MFC) [6] | Minimum Fungicidal Concentration (MFC) [11] | Minimum Fungicidal Concentration (MFC) [18] | Minimum Fungicidal Concentration (MFC) [21] | Minimum Inhibitory Concentration (MIC) [34] | Minimum Inhibitory Concentration (MIC) [35]
